Where “and” joins values, the source holds several entries; their conditions need not be identical. Identical values can stand only once. Like-named read-outs stand apart in the source and are kept apart here.
Columns and labels:
[1] = test system: E. coli; conditions: 24 h contact time
Text: (§1) PU formulated at a TDI: PPG mole ratio of 1.5:1 are post treated with water.

[2] = test system: E. coli ATCC 11229
Method: Escherichia coli ATCC 11229 (Culti-loops, Remel Europe, Dartford, Kent, UK) and Pseudomonas aeruginosa ATCC 15442 (Cuti-loops, Remel Europe, Dartford, Kent, UK) were selected as model Gram-negative organisms for the challenge testing of the antimicrobial coatings. Each bacterial strain was streaked for isolated colonies on Tryptic Soy Agar (TSA) plates (Difco, Becton Dickinson, Sparks, Md., U.S.A.) and incubated at 37° C. for 12 to 18 hours. Broth cultures were prepared by first picking 1-2 isolated colonies from TSA plates and inoculating 5 mL Tryptic Soy Broth (TSB; Difco, Becton Dickinson, Sparks, Md., U.S.A.) in a 16 mm test tube. This culture was grown in a shaking water bath at 150 RPM for 8 hours at 37° C. After the eight hours, 125 μL of this culture was added to 50 mL of TSB in a side-arm Klett flask and grown for approximately 8 hours in shaking water bath (150 RPM) at 37° C. The bacterial broths were grown to an A590 of 1.2-1.5, which correlated to approximately 10^9 CFU (colony forming units)/mL. 25 mL of this broth were transferred to a sterile 30 mL Oakridge tube and centrifuged at 12,000×g for 10 minutes at 4° C. (Sorval SS34 rotor) to pelletize the bacteria. The bacterial pellet was washed once and resuspended in 25 mL of phosphate buffer solution (PBS; BBL, FTA Hemaglutination Buffer, Becton Dickinson, Sparks, Md., U.S.A.). The suspension was diluted with PBS to achieve the target range of 10^5-10^6 CFU/mL and used to inoculate the slides containing antibacterial coatings.
The glass slides are then washed with acetone and water.
The 10% substitution on this weight basis corresponds to substitution of one tenth of the total surfactant weight or to 3% of the total composition weight.
Bacterial cultures as prepared and described in Example 12 are applied to the surfactant polymer coated slides as prepared and described in Example 26. All inoculations are performed in a laminar flow hood. Sterilized slides are placed into a sterile Petri dish. Then 0.5 mL of the prepared bacterial suspensions is pipetted directly onto the slide, which spreads across the surface of the coating but remains on top of the slide.
The surviving bacteria from the exposures described in Example 27 are determined as follows: At each time point, 25 mL of sterile PBS is pipetted into the Petri dish completely submerging the slide, and a sterile plastic inoculating loop is used to release any viable bacteria remaining on the surface of the coating. Samples are plated onto TSA plates, and incubated at 37° C. for at least 24 h. Plates containing between 30 and 300 isolated colonies are counted.

[3] = test system: S. aureus; assay type: cell-based, Staphylococcus aureus; conditions: laboratory acrylic clearcoat, 24 h contact time
Text: A laboratory experimental solvent based acrylic paint is formulated and then used to challenge S. aureus by adding various levels of the invention silver anionic surfactants as described in Example 33. A binder is made by solution polymerization of butyl acrylate (25% w/w), methylmethacrylate (73.5% w/w), and methacrylic acid (1.5% w/w) in amylacetate using thermal initiation. This solution polymer is then used to make a 60% solids clearcoat binder in xylene/methanol (5:1 by weight). The silver anionic surfactants are dissolved in this same xylene/methanol mixture prior to addition to the clearcoat.

[4] = test system: S. aureus; conditions: 24 h contact time
Text: as §1

[5] = test system: Staphylococcus aureus ATCC 6538;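 further: bacterial suspension pipetted onto each coated surface, then recovered in PBS, serially diluted and spread on TSA plates to count viable colonies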
Method: The antimicrobial activities of the coatings on coupons and slides are tested against both Gram-positive (Staphylococcus aureus ATCC 6538) and Gram-negative (Escherichia coli ATCC 11229) bacteria. The following set of steps are executed over a four day period, in order to evaluate the coatings for antimicrobial activity.
(1) Three colonies are picked from a Petri dish that contains refrigerator stock of E. coli and S. aureus. Each of the colonies is placed into a separate test tube of 5 mL of TSB (tryptic soy broth); (2) the TSB cultures are incubated in a heated shaker; the culture is grown overnight at 37° C. while shaking at 175 rpm.
(1) 500 μL (0.5 mL) of FINAL E. coli bacteria are placed onto the center of each sterilized coating (24 hour); the same is done with S. aureus; (2) the coupons/coatings are stored for 24 hours in sealed pan by stacking Petri dishes on top of one another; (3) 200 mL of sterile water is added to the bottom of each pan; each pan is enclosed with clear saran wrap and aluminum foil; the Pyrex pans containing the coatings are incubated at room temperature for 24 hours; all inoculations of the coatings are performed in the same laminar flow hood as where the sterilized slides are placed into sterile Petri dishes; the prepared bacterial suspension (0.5 ml) is directly pipetted onto the coating of the slide; the spreading of the innoculum across the surface of the coating is observed and noted.
(1) 500 μL (0.5 mL) of FINAL E. coli bacteria is placed onto the center of each sterilized coating (0 hour); the same is done with S. aureus; (2) after bacteria are added to the 0 hour coatings, each Petri dish (containing the coating) is submerged with 25 mL of PBS; this immersion stops the viable bacteria from continuing to grow; (3) 100 μL of fluid is removed from coatings dish and placed in the middle of a previously labeled TSA plate; this is done to both agar plates labeled with −1 concentration; before removing the fluid, the surface of the coupon is scratched with a sterile loop to activate movement of bacteria; (4) “hockey sticks” are sterilized with ethanol and flame, to spread solution thoroughly; (5) the concentration of bacteria is diluted by removing 500 μL of the fluid in the coupon dish and placing it into a test tube with 4.5 mL of PBS; this solution is diluted in duplicate by removing 100 μL of the fluid and spreading into TSA plates labeled −2; (6) sterilized “hockey sticks” are used to spread solution thoroughly; (7) 500 μL of fluid from 1st tube prepared in step 5 is removed and placed into 4.5 mL of PBS; this dilution is mixed and 100 μL is removed in duplicate and placed into two new TSA plates labeled −3; (8) sterilized “hockey sticks” are used to spread these dilutions thoroughly; (9) steps 1-8 are repeated for each of the coupons or slides.

[6] = 0.01 weight % Ag in PU composition
[7] = 0.03 weight % Ag in PU composition
[8] = 0.10 weight % Ag in PU composition
[9] = 0.30 weight % Ag in PU composition
[10] = 1.0 weight % Ag in PU composition
[11] = 3.0 weight % Ag in PU composition
[12] = 0.061% weight w/w Ag in coating (first column 0.113), polyurethane, microscope slides
[13] = 0.122% weight w/w Ag in coating (first column 0.226), polyurethane, microscope slides
[14] = 24 hour exposure, polyurethane coated lantern slides
[15] = […] weight w/w Ag in coating (first column 0.0574), polyurethane, microscope slides
[16] = acetate sprayed with 0.06% w/w AgAOT/isopropanol, 0 h contact time
[17] = acetate sprayed with 0.06% w/w AgAOT/isopropanol, 24 h contact time
[18] = cotton sprayed with 0.06% w/w AgAOT/isopropanol, 0 h contact time
[19] = cotton sprayed with 0.06% w/w AgAOT/isopropanol, 24 h contact time
[20] = linen sprayed with 0.06% w/w AgAOT/isopropanol, 24 h contact time
[21] = metal plate sprayed with 0.06% Ag+ AgAOT solution, 24 h contact time
[22] = polyester sprayed with 0.06% w/w AgAOT/isopropanol, 0 h contact time
[23] = polyester sprayed with 0.06% w/w AgAOT/isopropanol, 24 h contact time
[24] = rayon sprayed with 0.06% w/w AgAOT/isopropanol, 24 h contact time
[25] = silk sprayed with 0.06% w/w AgAOT/isopropanol, 0 h contact time
[26] = silk sprayed with 0.24% w/w AgAOT/isopropanol, 24 h
[27] = vinyl tile sprayed with 0.06% Ag+ AgAOT solution, 24 h contact time
[28] = wall-paper sprayed with 0.06% Ag+ AgAOT solution, 24 h contact time

SMILES: CCCCC(CC)COC(=O)CC(C(=O)OCC(CC)CCCC)S(=O)(=O)[O-].[Ag+] (centres unmarked) [AgAOT]
- E. coli growth on PU composition [1, 6]: +
- E. coli growth on PU composition [1, 7]: +
- E. coli growth on PU composition [1, 8]: +
- E. coli growth on PU composition [1, 9]: −
- E. coli growth on PU composition [1, 10]: −
- E. coli growth on PU composition [1, 11]: −
- Silver level providing complete inhibition ([1]; PU composition): 0.30 % w/w silver
- CFU/mL of E. coli at 12 hours [2, 12]: 0, 0, 0 CFU/mL
- CFU/mL of E. coli at 24 hours [2, 12]: 0, 0, 0 CFU/mL
- CFU/mL of E. coli at 12 hours [2, 13]: 0, 0, 0 CFU/mL
- CFU/mL of E. coli at 24 hours [2, 13]: 0, 0, 0 CFU/mL
- CFU/mL of E. coli at 24 hours ([2]; 0.5% substituted for sodium salt in coating ([…] weight silver), polyurethane coated lantern slides): 0; 0 CFU/mL
- CFU/mL of E. coli at 24 hours ([2]; 1.0% substituted for sodium salt in coating (0.061% weight silver), polyurethane coated lantern slides): 0; 0 CFU/mL
- CFU/mL of E. coli at 24 hours ([2]; 3.0% substituted for sodium salt in coating ([…] weight silver), polyurethane coated lantern slides): 0; 0 CFU/mL
- CFU/mL of E. coli at 24 hours ([2]; 10.0% substituted for sodium salt in coating (0.61% weight silver), polyurethane coated lantern slides): 0; 0 CFU/mL
- Overall silver level effective as bactericide ([2]; 12 hours of exposure): 0.06 % weight silver relative to coating weight
- Ag+ level resulting in complete killing of the E. coli [2, 14]: ≥ 0.031 % Ag+ relative to coating weig
- Level of substitution resulting in complete killing of the E. coli [2, 14]: ≥ 0.5 % weight relative to the 30% N
- Overall silver level effective as bactericide ([2]; 24 hours of exposure): 0.006 % weight silver relative to coating weight
- CFU/mL of E. coli at 24 hours ([2]; […] weight w/w Ag in coating (first column 0.0226), polyurethane, microscope slides): 0, 0, 0 CFU/mL
- CFU/mL of E. coli at 12 hours [2, 15]: 0, 0, 0 CFU/mL
- CFU/mL of E. coli at 24 hours [2, 15]: 0, 0, 0 CFU/mL
- Silver level with partial growth [3]: this lowest level
- S. aureus growth on PU composition [4, 6]: +
- S. aureus growth on PU composition [4, 7]: +
- S. aureus growth on PU composition [4, 8]: +
- S. aureus growth on PU composition [4, 9]: −
- S. aureus growth on PU composition [4, 10]: −
- S. aureus growth on PU composition [4, 11]: −
- Silver level providing complete inhibition ([4]; PU composition): 0.30 % w/w silver
- S. aureus CFU/mL, Average [5, 16]: 0.00E+00 CFU/mL
- S. aureus CFU/mL, Run #1-#4 [5, 16]: 0.00E+00 CFU/mL
- S. aureus CFU/mL, Average [5, 17]: 0.00E+00 CFU/mL
- S. aureus CFU/mL, Run #1-#4 [5, 17]: 0.00E+00 CFU/mL
- S. aureus CFU/mL, Average [5, 18]: 0.00E+00 CFU/mL
- S. aureus CFU/mL, Run #1-#4 [5, 18]: 0.00E+00 CFU/mL
- S. aureus CFU/mL, Average [5, 19]: 0.00E+00 CFU/mL
- S. aureus CFU/mL, Run #1-#4 [5, 19]: 0.00E+00 CFU/mL
- S. aureus CFU/mL, Average ([5]; linen sprayed with 0.06% w/w AgAOT/isopropanol, 0 h contact time): 1.24E+04 CFU/mL
- S. aureus CFU/mL, Average [5, 20]: 0.00E+00 CFU/mL
- S. aureus CFU/mL, Run #1-#4 [5, 20]: 0.00E+00 CFU/mL
- S. aureus CFU/mL, Avg ([5]; metal plate sprayed with 0.06% Ag+ AgAOT solution, 0 h contact time): 3.90E+04 CFU/mL
- S. aureus CFU/mL, Avg [5, 21]: 0.00E+00 CFU/mL
- S. aureus CFU/mL, Run #1-#2 [5, 21]: 0.00E+00 CFU/mL
- S. aureus on sprayed household surfaces ([5]; metal plate, wall paper, vinyl tile, 0.06% silver solution, 24 h contact time): Complete killing is obtained for each of the surfaces
- S. aureus CFU/mL, Average [5, 22]: 0.00E+00 CFU/mL
- S. aureus CFU/mL, Run #1-#4 [5, 22]: 0.00E+00 CFU/mL
- S. aureus CFU/mL, Average [5, 23]: 0.00E+00 CFU/mL
- S. aureus CFU/mL, Run #1-#4 [5, 23]: 0.00E+00 CFU/mL
- S. aureus CFU/mL, Average ([5]; rayon sprayed with 0.06% w/w AgAOT/isopropanol, 0 h contact time): 1.88E+02 CFU/mL
- S. aureus CFU/mL, Average [5, 24]: 0.00E+00 CFU/mL
- S. aureus CFU/mL, Run #1-#4 [5, 24]: 0.00E+00 CFU/mL
- Inhibition of S. aureus growth ([5]; rayon, 0.06% Ag AgAOT/isopropanol, 0 h contact time): 3 orders of magnitude
- S. aureus CFU/mL, Average [5, 25]: 1.45E+05 CFU/mL
- S. aureus CFU/mL, Run #1-#2 [5, 25]: 1.80E+05 CFU/mL and 1.10E+05 CFU/mL
- S. aureus CFU/mL, Average ([5]; silk sprayed with 0.06% w/w AgAOT/isopropanol, 24 h contact time): 9.13E+03 CFU/mL
- S. aureus CFU/mL, Average ([5]; silk sprayed with 0.24% w/w AgAOT/isopropanol, 0 h): 1.35E+05 CFU/mL
- S. aureus CFU/mL, Average [5, 26]: 0.00E+00 CFU/mL
- S. aureus CFU/mL, Run #1-#4 [5, 26]: 0.00E+00 CFU/mL
- S. aureus CFU/mL, Avg ([5]; vinyl tile sprayed with 0.06% Ag+ AgAOT solution, 0 h contact time): 1.25E+05 CFU/mL
- S. aureus CFU/mL, Avg [5, 27]: 0.00E+00 CFU/mL
- S. aureus CFU/mL, Run #1-#2 [5, 27]: 0.00E+00 CFU/mL
- S. aureus CFU/mL, Avg ([5]; wall-paper sprayed with 0.06% Ag+ AgAOT solution, 0 h contact time): 9.75E+04 CFU/mL
- S. aureus CFU/mL, Avg [5, 28]: 0.00E+00 CFU/mL
- S. aureus CFU/mL, Run #1-#2 [5, 28]: 0.00E+00 CFU/mL

Source: patent US20090060984A1, “ANIONIC SURFACTANTS LETHAL TO GRAM-POSITIVE BACTERIA” (priority 2007, published 2009)
